Literature values in US20100063116A1 (priority 2006, published 2010).
Where two headings read alike, the source gives them in different places.

Legend:
[1] = test system: dopamine receptors in the striatum and the substantia nigra; conditions: electrophysiologic studies in animals
[2] = test system: D2 subfamily of dopamine receptors; conditions: in vitro
[3] = test system: patients with early Parkinson's disease
[4] = test system: patients with early Parkinson's disease; remark: listed apart in the source
[5] = end of 6-month maintenance, titrated up to 4.5 mg/day in three divided doses

volume of distribution (CV=20%): about 500 L | renal clearance (CV=25%): approximately 400 mL/min | dose recovered in urine (almost all as unchanged drug): 90% | clearance in dialysis patients (dialysis patients): extremely low | terminal half-life (elderly volunteers): about 12 hours | metabolites in plasma or urine (human, in vivo): no metabolites have been identified | pharmacokinetics in early versus advanced Parkinson's disease patients (human, in vivo): comparable | decrease of clearance compared with healthy volunteers (moderate renal impairment (creatinine clearance approximately 40 mL/min)): about 60% | time to steady-state concentrations (of dosing): ≤ 2 days | absolute bioavailability (oral): greater than 90% | linearity of pharmacokinetics (over the clinical dosage range): linear pharmacokinetics | decrease of clearance compared with healthy volunteers (severe renal impairment (creatinine clearance approximately 20 mL/min)): about 75% | effect of food on the extent of absorption (taken with food): does not affect | terminal half-life (young healthy volunteers): about 8 hours | intrinsic activity at the D2 subfamily of dopamine receptors [2]: full intrinsic activity | bound to plasma proteins (plasma proteins): about 15%
SMILES: CCCN[C@@H]1CCc2nc(N)sc2C1 [Pramipexole, pramipexole]
effect on striatal neuronal firing rates [1]: influences striatal neuronal firing rates | dose-response relationship ([3]; 1.5 mg, 3.0 mg, 4.5 mg, or 6.0 mg per day): No dose-response relationship was demonstrated | mean improvement from baseline on the UPDRS part III total score ([3]; end of 4-week maintenance, fixed doses 1.5-6.0 mg per day): 4.2 | mean improvement from baseline on the UPDRS part II total score ([3]; end of 4-week maintenance, fixed doses 1.5-6.0 mg per day, regardless of dose group): 1.8 | benefit of 3 mg, 4.5 mg and 6 mg per day beyond 1.5 mg/day ([3]; fixed-dose study in early Parkinson's disease patients): not shown to provide any significant benefit | mean improvement from baseline on the UPDRS part II (ADL) total score [4, 5]: 1.9 | mean improvement from baseline on the UPDRS part III total score [4, 5]: 5.0 | beginning of statistically significant difference versus placebo, UPDRS part II ([4]; maximum dose 0.75 mg/day): 2 week | beginning of statistically significant difference versus placebo, UPDRS part III ([4]; maximum dose 1.5 mg/day): 3 week
